Measured values published in ChEMBL document CHEMBL1250448, “Inhibitor hijacking of Akt activation” (Nat Chem Biol, 2009).
Active and inactive are the calls of the source. The rule behind the calls is not given here.

Legend:
[1] = target: Serine/threonine-protein kinase 26 (Homo sapiens) (UniProt Q9P289); test: Inhibition of MST4 at 1 uM in presence of 100 uM ATP by Select Screen kinase assay relative to untreated control
[2] = system: RAC-alpha serine/threonine-protein kinase (Homo sapiens), P31749 [M227G]; test: Induction of myristoylated AKT1 M227G Ser473 hyperphosphorylation expressed in MiaPaCa2 cells at 2.5 uM after 30 mins by immunoblotting; assay type: cell-based
Chain of RAC-alpha serine/threonine-protein kinase (Homo sapiens), P31749 [M227G] (P31749 whole entry M227G): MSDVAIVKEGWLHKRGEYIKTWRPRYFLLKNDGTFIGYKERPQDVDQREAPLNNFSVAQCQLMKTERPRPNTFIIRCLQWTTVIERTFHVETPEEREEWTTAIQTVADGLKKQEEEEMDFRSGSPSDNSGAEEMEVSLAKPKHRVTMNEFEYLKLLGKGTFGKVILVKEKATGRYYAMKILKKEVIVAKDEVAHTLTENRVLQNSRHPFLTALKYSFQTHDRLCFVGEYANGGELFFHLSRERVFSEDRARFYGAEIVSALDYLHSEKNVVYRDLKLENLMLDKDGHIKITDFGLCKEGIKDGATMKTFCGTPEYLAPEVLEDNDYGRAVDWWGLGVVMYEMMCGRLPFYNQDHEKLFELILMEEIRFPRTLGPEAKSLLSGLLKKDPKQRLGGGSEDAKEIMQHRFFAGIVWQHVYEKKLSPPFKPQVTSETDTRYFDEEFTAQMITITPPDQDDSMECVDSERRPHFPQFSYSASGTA

[3] = system: MCF7; test: Induction of myristoylated AKT2 M225G mutant Thr308 hyperphosphorylation expressed in MCF7 cells at 2.5 uM after 30 mins by immunoblotting; assay type: cell-based
[4] = system: HEK-293T; test: Induction myristoylated AKT2 M225G mutant Thr308 hyperphosphorylation expressed in HEK293T cells at 2.5 uM after 30 mins pretreated with mTOR kinase inhibitor PP242 for 10 mins before compound addition by immunoblotting; assay type: cell-based
[5] = system: HEK-293T; test: Induction of myristoylated AKT3 M229G mutant Thr308 hyperphosphorylation expressed in HEK293T cells at 2.5 uM after 30 mins by immunoblotting; assay type: cell-based
[6] = system: HEK-293T; test: Induction of myristoylated AKT3 M229G mutant Ser473 hyperphosphorylation expressed in HEK293T cells at 2.5 uM after 30 mins by immunoblotting; assay type: cell-based
[7] = system: RAC-alpha serine/threonine-protein kinase (Homo sapiens), P31749 [M227G]; test: Induction of membrane localized myristoylated AKT1 M227G mutant Ser473 hyperphosphorylation expressed in HEK293T cells at 2.5 uM after 30 mins by immunoblotting; assay type: cell-based; settings: HEK-293T
[8] = system: RAC-alpha serine/threonine-protein kinase (Homo sapiens), P31749 [M227G]; test: Induction of myristoylated AKT1 M227G Thr308 hyperphosphorylation expressed in HEK293 cells coexpressing flag-tagged wild type AKT1 after 30 mins by immunoblotting; assay type: cell-based
[9] = system: RAC-alpha serine/threonine-protein kinase (Homo sapiens), P31749 [M227G,D292A]; test: Induction of nonmyristoylated AKT1 M227G and kinase dead D292A mutant Thr308 hyperphosphorylation expressed in HEK293T cells at 2.5 uM after 30 mins by immunoblotting; assay type: cell-based; settings: HEK-293T
Chain of RAC-alpha serine/threonine-protein kinase (Homo sapiens), P31749 [M227G,D292A] (P31749 whole entry M227G/D292A): as the sequence (P31749 whole entry M227G) above, with D292A counted along it

[10] = system: RAC-alpha serine/threonine-protein kinase (Homo sapiens), P31749 [M227G]; test: Induction of myristoylated AKT1 M227G Thr308 hyperphosphorylation expressed in MiaPaCa2 cells at 2.5 uM after 30 mins by immunoblotting; assay type: cell-based
[11] = system: RAC-alpha serine/threonine-protein kinase (Homo sapiens), P31749 [M227G]; test: Induction of myristoylated AKT1 M227G mutant Ser473 hyperphosphorylation expressed in HEK293 cells after 30 mins by immunoblotting; settings: HEK-293
[12] = system: RAC-alpha serine/threonine-protein kinase (Homo sapiens), P31749 [M227G]; test: Induction of myristoylated AKT1 M227G Ser473 hyperphosphorylation expressed in MCF7 cells at 2.5 uM after 30 mins by immunoblotting; assay type: cell-based
[13] = system: MCF7; test: Induction of myristoylated AKT2 M225G mutant Ser473 hyperphosphorylation expressed in MCF7 cells at 2.5 uM after 30 mins by immunoblotting; assay type: cell-based
[14] = system: RAC-alpha serine/threonine-protein kinase (Homo sapiens), P31749 [M227G,D292A]; test: Induction of myristoylated AKT1 M227G and kinase dead D292A mutant Thr308 hyperphosphorylation expressed in HEK293T cells at 2.5 uM after 30 mins by immunoblotting; assay type: cell-based; settings: HEK-293T
[15] = system: HEK-293T; test: Induction of nonmyristoylated AKT2 M225G and kinase dead D289A mutant Thr308 hyperphosphorylation expressed in HEK293T cells at 2.5 uM after 30 mins by immunoblotting; assay type: cell-based
[16] = system: RAC-alpha serine/threonine-protein kinase (Homo sapiens), P31749 [M227G]; test: Induction of myristoylated AKT1 M227G mutant Ser473 hyperphosphorylation expressed in HEK293T cells at 2.5 uM after 30 mins pretreated with PDK1 inhibitor BX-795 for 10 mins before compound addition by immunoblotting; assay type: cell-based; settings: HEK-293T
[17] = system: RAC-alpha serine/threonine-protein kinase (Homo sapiens), P31749 [M227G,R25C]; test: Induction of myristoylated AKT1 M227G and R25C mutant Thr308 hyperphosphorylation expressed in HEK293T cells at 2.5 uM after 30 mins by immunoblotting; assay type: cell-based; settings: HEK-293T
Chain of RAC-alpha serine/threonine-protein kinase (Homo sapiens), P31749 [M227G,R25C] (P31749 whole entry R25C/M227G): as the sequence (P31749 whole entry M227G) above, with R25C counted along it

[18] = system: RAC-alpha serine/threonine-protein kinase (Homo sapiens), P31749 [M227G]; test: Induction of myristoylated AKT1 M227G Ser473 hyperphosphorylation expressed in PC3 cells at 2.5 uM after 30 mins by immunoblotting; assay type: cell-based; settings: PC-3
[19] = system: RAC-alpha serine/threonine-protein kinase (Homo sapiens), P31749 [M227G,D292A]; test: Induction of myristoylated AKT1 M227G and kinase dead D292A mutant Ser473 hyperphosphorylation expressed in MiaPaCa2 cells at 2.5 uM after 30 mins by immunoblotting; assay type: cell-based
[20] = system: RAC-alpha serine/threonine-protein kinase (Homo sapiens), P31749 [M227G]; test: Induction of myristoylated AKT1 M227G Thr308 hyperphosphorylation expressed in MCF7 cells at 2.5 uM after 30 mins by immunoblotting; assay type: cell-based
[21] = system: RAC-alpha serine/threonine-protein kinase (Homo sapiens), P31749 [M227G]; test: Induction of AKT1 M227G Ser473 hyperphosphorylation expressed in HEK293 cells at 2.5 uM after 30 mins pretreated with allosteric AKT inhibitor Akti-1,2 10 mins before compound addition by immunoblotting
[22] = system: RAC-alpha serine/threonine-protein kinase (Homo sapiens), P31749 [M227G]; test: Induction of myristoylated AKT1 M227G mutant Ser473 hyperphosphorylation expressed in HEK293T cells at 2.5 uM after 30 mins pretreated with mTOR kinase inhibitor PP242 for 10 mins before compound addition by immunoblotting; assay type: cell-based; settings: HEK-293T
[23] = system: HEK-293T; test: Induction of myristoylated AKT3 M229G mutant Ser473 hyperphosphorylation expressed in HEK293T cells at 2.5 uM after 30 mins pretreated with mTOR kinase inhibitor PP242 for 10 mins before compound addition by immunoblotting; assay type: cell-based
[24] = system: PC-3; test: Induction of myristoylated AKT2 M225G mutant Ser473 hyperphosphorylation expressed in PC3 cells at 2.5 uM after 30 mins by immunoblotting; assay type: cell-based
[25] = system: PC-3; test: Induction of myristoylated AKT2 M225G mutant Thr308 hyperphosphorylation expressed in PC3 cells at 2.5 uM after 30 mins by immunoblotting; assay type: cell-based
[26] = system: RAC-alpha serine/threonine-protein kinase (Homo sapiens), P31749 [M227G]; test: Increase in catalytic activity of compound exposed AKT1 M227G mutant expressed in HEK293 cells measured post compound dissociation by in vitro immunoprecipitation kinase assay relative to untreated AKT1 M227G mutant; settings: HEK-293
[27] = system: RAC-alpha serine/threonine-protein kinase (Homo sapiens), P31749 [M227G]; test: Induction of myristoylated AKT1 M227G mutant Thr308 hyperphosphorylation expressed in HEK293T cells at 2.5 uM after 30 mins pretreated with PDK1 inhibitor BX-795 for 10 mins before compound addition by immunoblotting; assay type: cell-based; settings: HEK-293T
[28] = system: RAC-alpha serine/threonine-protein kinase (Homo sapiens), P31749 [M227G,D292A]; test: Induction of myristoylated AKT1 M227G and kinase dead D292A mutant Thr308 hyperphosphorylation expressed in MiaPaCa2 cells at 2.5 uM after 30 mins by immunoblotting; assay type: cell-based
[29] = system: HEK-293T; test: Induction myristoylated AKT2 M225G mutant Ser473 hyperphosphorylation expressed in HEK293T cells at 2.5 uM after 30 mins pretreated with pan-PI3K inhibitor PIK90 for 10 mins before compound addition by immunoblotting; assay type: cell-based
[30] = system: HEK-293T; test: Induction of myristoylated AKT3 M229G mutant Thr308 hyperphosphorylation expressed in HEK293T cells at 2.5 uM after 30 mins pretreated with PDK1 inhibitor BX-795 for 10 mins before compound addition by immunoblotting; assay type: cell-based
[31] = system: PC-3; test: Induction of myristoylated AKT2 M225G and kinase dead D289A mutant Thr308 hyperphosphorylation expressed in PC3 cells at 2.5 uM after 30 mins by immunoblotting; assay type: cell-based

Chain of Serine/threonine-protein kinase 26 (Homo sapiens) (Q9P289 2-416 limits assumed): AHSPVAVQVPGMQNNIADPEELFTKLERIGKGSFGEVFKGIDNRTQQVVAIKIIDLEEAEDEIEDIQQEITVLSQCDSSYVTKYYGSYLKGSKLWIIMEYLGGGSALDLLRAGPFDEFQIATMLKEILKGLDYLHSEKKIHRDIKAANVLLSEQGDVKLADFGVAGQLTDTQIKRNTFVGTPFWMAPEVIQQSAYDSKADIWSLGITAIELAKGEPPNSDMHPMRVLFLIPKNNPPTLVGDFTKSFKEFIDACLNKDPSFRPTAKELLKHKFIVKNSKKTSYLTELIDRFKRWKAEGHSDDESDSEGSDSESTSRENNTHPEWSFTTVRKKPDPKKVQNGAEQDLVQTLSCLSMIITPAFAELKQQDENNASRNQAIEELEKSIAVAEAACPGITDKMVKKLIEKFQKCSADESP

COc1ccccc1N1CCN(c2ncnc3[nH]nc(Br)c23)CC1
inhibition [1]: 11%

CCCc1cc(-c2cncc(OC[C@@H](N)Cc3c[nH]c4ccccc34)c2)cc2c(C)n[nH]c12
Activity [2]: Active | Activity [3]: Active | Activity [4]: Active | Activity [5]: Active | Activity [6]: Active | Activity [7]: Active | Activity [8]: Active | Activity [9]: Active | Activity [10]: Active | Activity [11]: Dose-dependent effect | Activity [12]: Active | Activity [13]: Active | Activity [14]: Active | Activity [15]: Active | Activity [16]: inactive | Activity [17]: inactive | Activity [18]: Active | Activity [19]: Active | Activity [20]: Active | Activity [21]: inactive | Activity [22]: inactive | Activity [23]: inactive | Activity [24]: Active | Activity [25]: Active | fold change (FC) [26]: 10 | Activity [27]: inactive | Activity [28]: Active | Activity [29]: inactive | Activity [30]: inactive | Activity [31]: Active
